Results as given in ChEMBL document CHEMBL1201862, “PubChem BioAssay data set” (2004).
The source made the active and inactive calls.

Tests used:
[1] = biological target: T1, Zinc finger protein mex-5 (Caenorhabditis elegans, UniProt Q9XUB2); test: MEX-5/TCR-2 RNA interaction inhibitors, dose response, biochemical, C. elegans, fluorescence polarization (AID 1960)
T1 sequence (Q9XUB2 whole entry): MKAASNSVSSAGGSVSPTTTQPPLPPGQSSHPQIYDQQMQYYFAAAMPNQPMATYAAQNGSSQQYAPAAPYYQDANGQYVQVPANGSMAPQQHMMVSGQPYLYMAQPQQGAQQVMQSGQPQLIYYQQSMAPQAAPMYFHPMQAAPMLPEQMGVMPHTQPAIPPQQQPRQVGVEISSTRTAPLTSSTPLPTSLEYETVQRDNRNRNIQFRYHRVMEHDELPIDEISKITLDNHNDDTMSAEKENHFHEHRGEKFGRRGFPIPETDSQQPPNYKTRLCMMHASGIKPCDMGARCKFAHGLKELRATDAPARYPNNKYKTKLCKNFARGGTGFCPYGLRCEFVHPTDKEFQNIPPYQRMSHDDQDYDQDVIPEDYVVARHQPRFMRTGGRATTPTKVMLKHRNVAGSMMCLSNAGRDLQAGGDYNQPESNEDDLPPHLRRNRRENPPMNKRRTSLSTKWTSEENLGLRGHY

[2] = biological target: T2, RNA-binding protein pos-1 (Caenorhabditis elegans, UniProt G5EF15); test: inhibitors of POS-1/mex-3 RNA binding, dose response, biochemical, fluorescence polarization (AID 1964);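 further: purified POS-1 fused to maltose binding protein made in E. coli; potency of compounds blocking POS-1 binding to fluorescent RNA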
T2 sequence (G5EF15 whole entry): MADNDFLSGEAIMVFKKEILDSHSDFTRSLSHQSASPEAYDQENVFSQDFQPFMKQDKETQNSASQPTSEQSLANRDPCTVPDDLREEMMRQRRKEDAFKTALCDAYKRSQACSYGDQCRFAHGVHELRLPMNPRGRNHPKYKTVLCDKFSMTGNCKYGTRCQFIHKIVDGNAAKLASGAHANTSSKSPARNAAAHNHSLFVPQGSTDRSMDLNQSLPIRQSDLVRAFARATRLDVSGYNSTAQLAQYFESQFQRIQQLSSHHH

[3] = biological target: Induced myeloid leukemia cell differentiation protein Mcl-1 (Homo sapiens, UniProt Q07820); type: functional
Sequence of Induced myeloid leukemia cell differentiation protein Mcl-1 (Q07820 whole entry): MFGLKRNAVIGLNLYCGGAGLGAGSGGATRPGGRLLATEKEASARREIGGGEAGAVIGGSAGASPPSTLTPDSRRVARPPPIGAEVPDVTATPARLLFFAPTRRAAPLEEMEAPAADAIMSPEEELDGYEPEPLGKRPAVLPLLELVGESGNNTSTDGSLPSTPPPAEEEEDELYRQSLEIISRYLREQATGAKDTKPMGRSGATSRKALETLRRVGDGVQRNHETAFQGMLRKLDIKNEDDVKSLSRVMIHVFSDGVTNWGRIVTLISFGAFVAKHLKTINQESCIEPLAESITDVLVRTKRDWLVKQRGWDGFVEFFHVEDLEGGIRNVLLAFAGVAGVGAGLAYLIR

Vero = test: cells; type: functional; settings: Chlorocebus sabaeus
[4] = growth suppression of PTEN-null colon cells, dose response, cell-based, HCT116 PTEN knockout (AID 1047); type: functional;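 further: HCT116 colon tumor cells with PTEN knocked out; cells exposed to compound for 60 hours before readout; potency for loss of cell viability measured by luminescence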
[5] = growth suppression of beta-catenin-knockout colon cells, dose response, cell-based, HCT116, human colon tumor (AID 1045); type: functional;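 further: HCT116 colon tumor cells with beta catenin knocked out; cells exposed to compound for 60 hours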
[6] = biological target: T3, Polyadenylate-binding protein 1 (Homo sapiens, UniProt P11940); test: PABP1 MLLE–PAM2 interaction inhibitors, dose response, miRNA deadenylation inhibitor project, biochemical, fluorescence polarization, Cy5-PAM2 peptide, secondary (AID 602260); type: functional; settings: read-out: IC50_Mean
T3 sequence (P11940 whole entry): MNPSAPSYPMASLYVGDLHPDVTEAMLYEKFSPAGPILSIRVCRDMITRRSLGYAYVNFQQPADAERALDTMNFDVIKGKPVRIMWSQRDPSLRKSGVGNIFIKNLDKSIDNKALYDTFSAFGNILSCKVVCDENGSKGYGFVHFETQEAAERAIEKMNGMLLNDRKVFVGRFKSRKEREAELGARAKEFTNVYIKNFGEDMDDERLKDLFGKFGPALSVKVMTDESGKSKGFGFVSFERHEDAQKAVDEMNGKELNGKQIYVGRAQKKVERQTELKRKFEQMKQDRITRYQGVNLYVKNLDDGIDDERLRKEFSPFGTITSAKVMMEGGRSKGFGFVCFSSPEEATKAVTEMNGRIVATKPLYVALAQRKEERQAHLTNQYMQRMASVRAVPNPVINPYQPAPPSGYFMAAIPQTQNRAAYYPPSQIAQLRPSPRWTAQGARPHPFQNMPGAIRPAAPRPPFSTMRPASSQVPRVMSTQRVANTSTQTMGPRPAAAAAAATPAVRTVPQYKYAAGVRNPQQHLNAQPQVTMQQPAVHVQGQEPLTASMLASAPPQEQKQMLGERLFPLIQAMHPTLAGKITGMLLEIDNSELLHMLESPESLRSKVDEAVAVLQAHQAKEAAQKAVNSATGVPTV

[7] = biological target: T3, Polyadenylate-binding protein 1; test: PABP1 MLLE–PAM2 binding inhibitor potency, dose response, biochemical, fluorescence polarization, FITC-PAM2 peptide (AID 602259); type: functional; settings: read-out: IC50_Mean
[8] = biological target: T4, High affinity choline transporter 1 (Homo sapiens, UniProt Q9GZV3); test: CHT inhibitors, dose response, cell-based, 5-point CRC, membrane potential dye (AID 504840); type: functional
T4 sequence (Q9GZV3 whole entry): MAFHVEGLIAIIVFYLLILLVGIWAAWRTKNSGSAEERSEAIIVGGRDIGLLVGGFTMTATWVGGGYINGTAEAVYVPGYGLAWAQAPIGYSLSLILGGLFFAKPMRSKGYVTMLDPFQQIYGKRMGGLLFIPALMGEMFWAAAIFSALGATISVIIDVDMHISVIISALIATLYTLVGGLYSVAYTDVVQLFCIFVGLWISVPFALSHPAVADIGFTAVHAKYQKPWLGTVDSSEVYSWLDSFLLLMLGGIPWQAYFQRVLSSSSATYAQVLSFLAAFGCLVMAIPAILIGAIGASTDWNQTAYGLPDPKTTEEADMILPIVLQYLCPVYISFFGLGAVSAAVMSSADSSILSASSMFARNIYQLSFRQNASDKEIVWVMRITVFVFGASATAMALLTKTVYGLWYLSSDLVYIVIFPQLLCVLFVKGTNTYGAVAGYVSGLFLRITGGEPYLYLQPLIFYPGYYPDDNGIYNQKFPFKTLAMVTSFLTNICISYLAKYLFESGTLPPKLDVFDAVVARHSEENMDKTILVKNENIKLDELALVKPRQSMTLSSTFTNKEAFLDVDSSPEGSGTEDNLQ

[9] = biological target: T5, DNA repair protein RAD52 homolog (Homo sapiens, UniProt P43351); type: functional, biochemical
T5 sequence (P43351 whole entry): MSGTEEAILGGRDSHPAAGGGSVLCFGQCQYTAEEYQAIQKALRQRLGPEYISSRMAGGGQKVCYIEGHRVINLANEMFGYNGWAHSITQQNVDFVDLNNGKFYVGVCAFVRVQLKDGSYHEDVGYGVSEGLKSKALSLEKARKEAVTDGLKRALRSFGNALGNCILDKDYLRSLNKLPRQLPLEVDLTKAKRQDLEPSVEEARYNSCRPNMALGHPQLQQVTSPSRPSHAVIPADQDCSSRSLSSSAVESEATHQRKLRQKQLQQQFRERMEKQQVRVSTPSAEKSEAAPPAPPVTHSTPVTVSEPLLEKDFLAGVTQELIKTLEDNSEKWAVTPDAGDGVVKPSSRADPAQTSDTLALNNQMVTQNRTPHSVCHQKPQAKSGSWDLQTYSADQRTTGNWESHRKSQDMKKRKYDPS

[10] = cytotoxicity toward NIH3T3 fibroblasts, dose response, counter-screen, cell-based, ATP luminescence, mouse fibroblasts (AID 2010); type: functional;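 further: cells exposed to compound for about 90 hours before reading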
[11] = inhibitors of intracellular T. cruzi replication, confirmation, NIH3T3 host cells, beta-gal luminescence (AID 2044); type: functional, cell-based;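 further: intracellular parasites grown in NIH/3T3 mouse fibroblasts as host cells; luminescent beta-galactosidase reporter signal from transgenic T. cruzi replicating inside host cells; inhibitors lower the luminescence signal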
cells [12] = type: functional, cell-based
cells [13] = type: functional, cell-based; remark: listed apart in the source
[14] = test system: Streptococcus sp. 'group A'; test: growth inhibition of control SK(-) GAS strain, dose response, counter-screen for streptokinase expression inhibitor project, luminescence, kanamycin, BacTiterGlo, confirmation (AID 1900); type: functional, organism-based
Streptococcus = test: Group A Streptococcus viability loss, dose response, counter-screen for streptokinase expression inhibitor project, luminescence, BacTiterGlo (AID 1915); type: functional, organism-based;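 further: potency for reduction of bacterial viability or growth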
[15] = biological target: T6, Heat shock factor protein 1 (Mus musculus, UniProt P38532); test: inhibition of MG132-induced HSE-luciferase signal, confirmation, cell-based, NIH3T3, luminescence, dose retest (AID 2382); type: functional;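 further: NIH3T3 fibroblasts with HSF1-driven luciferase reporter stressed by proteasome inhibitor MG132; luminescence from HSF1-driven luciferase expression after 8 hours of MG132 stress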
T6 sequence (P38532 whole entry): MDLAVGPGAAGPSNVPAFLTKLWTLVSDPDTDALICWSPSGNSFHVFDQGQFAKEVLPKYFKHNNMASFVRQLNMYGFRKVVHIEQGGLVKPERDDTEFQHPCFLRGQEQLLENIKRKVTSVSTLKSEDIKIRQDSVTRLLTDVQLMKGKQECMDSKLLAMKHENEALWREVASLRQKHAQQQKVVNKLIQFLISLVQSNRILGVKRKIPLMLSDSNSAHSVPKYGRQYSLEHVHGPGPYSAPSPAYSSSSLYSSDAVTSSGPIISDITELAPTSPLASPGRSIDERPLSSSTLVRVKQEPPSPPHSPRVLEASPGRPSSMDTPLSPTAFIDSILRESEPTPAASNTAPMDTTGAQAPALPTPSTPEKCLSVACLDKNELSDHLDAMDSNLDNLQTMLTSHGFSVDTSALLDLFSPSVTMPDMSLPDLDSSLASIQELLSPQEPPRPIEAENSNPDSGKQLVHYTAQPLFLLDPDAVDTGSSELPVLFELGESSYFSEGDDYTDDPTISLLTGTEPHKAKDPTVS

[16] = biological target: T7, Carboxy-terminal domain RNA polymerase II polypeptide A small phosphatase 1 (Homo sapiens, UniProt Q9GZU7); test: inhibitors of CTDSP1, concentration-response testing, biochemical assay, absorbance-based, actives from ultra-high-throughput screening (AID 540297); type: functional
T7 sequence (Q9GZU7 whole entry): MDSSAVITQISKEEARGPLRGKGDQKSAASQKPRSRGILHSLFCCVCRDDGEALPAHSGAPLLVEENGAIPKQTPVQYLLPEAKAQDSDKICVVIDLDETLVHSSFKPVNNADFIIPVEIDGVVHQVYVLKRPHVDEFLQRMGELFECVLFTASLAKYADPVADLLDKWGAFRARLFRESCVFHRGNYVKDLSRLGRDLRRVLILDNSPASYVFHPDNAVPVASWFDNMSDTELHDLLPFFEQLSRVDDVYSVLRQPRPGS

cells [17] = type: functional
[18] = THP-1 cell cytotoxicity, dose response, cytotoxicity control for non-replicating M. tuberculosis project (AID 489025); type: functional
[19] = biological target: T6, Heat shock factor protein 1; test: HSF1 potentiators in luciferase reporter cells, confirmation, cell-based, NIH3T3, luminescence, dose retest (AID 435004); type: functional;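 further: stress induced by proteasome inhibitor MG132 added 30 min after compound; luciferase reporter driven by HSF1 response element in NIH3T3 cells; actives raise luminescence as potentiators of the MG132 stress response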
[20] = Luminescence Cell-Based Dose Confirmation HTS to Identify Inhibitors of Platelet Dense Granule Release. [Related pubchem assays: 1663 (Primary HTS), 1678 (Summary of Project)]; type: functional
[21] = biological target: Luciferin 4-monooxygenase (Photinus pyralis, UniProt P08659); test: firefly luciferase enzyme inhibitors, dose response, biochemical, luminescence (AID 1891)
Sequence of Luciferin 4-monooxygenase (P08659 whole entry): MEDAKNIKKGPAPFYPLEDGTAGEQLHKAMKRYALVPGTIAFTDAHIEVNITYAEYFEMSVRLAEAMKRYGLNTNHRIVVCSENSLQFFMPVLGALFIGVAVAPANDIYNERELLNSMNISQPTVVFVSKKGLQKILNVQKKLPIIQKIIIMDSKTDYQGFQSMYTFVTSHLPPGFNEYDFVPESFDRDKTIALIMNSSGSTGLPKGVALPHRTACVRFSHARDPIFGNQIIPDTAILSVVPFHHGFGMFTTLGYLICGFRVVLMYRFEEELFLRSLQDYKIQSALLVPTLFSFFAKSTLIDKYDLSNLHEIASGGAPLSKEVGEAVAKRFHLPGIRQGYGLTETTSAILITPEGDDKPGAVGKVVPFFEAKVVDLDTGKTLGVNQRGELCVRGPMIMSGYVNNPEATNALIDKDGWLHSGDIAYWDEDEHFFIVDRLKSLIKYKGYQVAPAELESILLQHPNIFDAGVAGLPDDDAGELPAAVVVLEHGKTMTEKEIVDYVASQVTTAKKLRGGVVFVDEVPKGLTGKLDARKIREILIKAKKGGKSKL

SMILES: CCOC1(OCC)N=C(N)C2(C#N)C(c3ccc(NC(C)=O)cc3)C12C#N (centres undefined)
- EC50 [1]: 79.4 µM (active)
- EC50 [2]: 155 µM (active)

SMILES: CN(C)c1ccc(NC(=O)CCCc2ccccc2)cc1
- IC50 [3]: 4.98 µM (not active)

SMILES: Cc1cccc(OCC(O)Cn2c(=N)n(CCN3CCCCC3)c3ccccc32)c1 (centres undefined)
- CC50 (Vero): 15 µM (active)
- EC50 [4]: 7.39 µM (active)
- EC50 [5]: 6.6 µM (active)

SMILES: Cc1cc2cc(CNC(=O)COc3ccccc3)ccc2n1C
- IC50 [6]: > 66 µM (inactive)
- IC50 [7]: > 66 µM (inactive)

SMILES: Cc1ccc(NC(S)=Nc2ccc3[nH]c(O)nc3c2)cc1C
- IC50 [6]: > 66 µM (inactive)
- IC50 [8]: 14.5 µM (active)
- IC50 [7]: > 66 µM (inactive)

SMILES: CN1CCN(S(=O)(=O)c2ccc(NC(=S)NC(=O)C(C)(C)C)cc2)CC1
- IC50 [6]: > 66 µM (inactive)
- IC50 [7]: > 66 µM (inactive)

SMILES: COc1cc2c(cc1OC)CN(c1nc(CN3CCCC3)nc3sc(C)c(C)c13)CC2
- AC50 [9]: 11.5 µM (active)
- EC50 [10]: > 60 µM (not active)
- EC50 [11]: 0.278 µM (active)

SMILES: CCOc1ccc(NC(=O)COc2ccccc2)c([N+](=O)[O-])c1
- EC50 (cells [12]): > 350 µM (not active)
- EC50 (cells [13]): 11.9 µM (active)
- EC50 [1]: > 300 µM (not active)
- EC50 [2]: > 300 µM (not active)

SMILES: Cc1ccc(S(=O)(=O)Nc2ccccc2F)cc1C(=O)NNC(=O)c1csc(N2CCOCC2)n1
- EC50 [1]: 23.3 µM (active)
- EC50 [2]: 30.8 µM (active)

SMILES: COc1ccc(C(=O)NNC(=S)NC(=O)c2ccc(F)cc2)cc1Br
- EC50 [14]: 0.378 µM (active)
- CC50 (Vero): > 25 µM (active)
- EC50 (Streptococcus): 1.73 µM (active)

SMILES: Cc1c(N=C2Nc3cccc4cccc2c34)c(=O)n(-c2ccccc2)n1C
- EC50 [1]: > 300 µM (not active)
- EC50 [2]: > 300 µM (not active)

SMILES: CC(=O)c1ccccc1-c1csc2ncnc(Sc3nnnn3C)c12
- CC50 (Vero): > 25 µM (active)

SMILES: CCOC(=O)c1ccccc1NC(=O)c1cn(-c2ccc(OC)cc2)c(=O)c2ccccc12
- CC50 (Vero): > 25 µM (active)

SMILES: COc1cc(NC(=O)CSc2nnc3ccc(-c4ccncc4)nn23)cc(OC)c1
- EC50 [1]: > 300 µM (not active)
- EC50 [2]: > 300 µM (not active)

SMILES: CC(C)c1nc(SCC(=O)c2ccc(F)cc2)c2ccccc2n1
- EC50 [15]: > 195 µM (not active)
- IC50 [6]: > 66 µM (inactive)
- IC50 [7]: > 66 µM (inactive)

SMILES: COc1ccc(C(=O)NC2(C(F)(F)F)C(=O)N(Cc3ccco3)C3=C2C(=O)CC(C)(C)C3)cc1OC (centres undefined)
- EC50 [1]: > 300 µM (not active)
- EC50 [2]: > 300 µM (not active)

SMILES: O=C(COc1ccc2ccccc2c1)NNC(=O)c1ccc([N+](=O)[O-])cc1
- IC50 [3]: 7.07 µM (active)
- IC50 [16]: 6.67 µM (active)

SMILES: COc1ccc(C(=O)NCC(=O)N/N=C/c2ccc([N+](=O)[O-])o2)cc1OC
- IC50 (cells [17]): 4.08 µM (active)
- CC50 [18]: 24 µM (active)

SMILES: Cc1ccc(C(=O)Oc2oc(-c3ccccc3)nc2/C=N/c2ccc(N(C)C)cc2)cc1
- EC50 [1]: > 300 µM (inconclusive)
- EC50 [19]: 6.88 µM (active)
- EC50 [2]: > 300 µM (not active)

SMILES: Cc1cccc(/N=C/c2sc3ccccc3c2O)n1
- EC50 [20]: 22.1 µM (active)
- EC50 [21]: 1.02 µM (active)
- IC50 [3]: 1.57 µM (active)

SMILES: CSc1nc2c(=S)[nH]c(=S)[nH]c2s1
- IC50 [6]: > 66 µM (inactive)
- IC50 [7]: > 66 µM (inactive)

SMILES: O=C(O)CCN1C(=O)/C(=C\c2ccc(-c3nc4ccccc4s3)o2)SC1=S
- IC50 [3]: 1.53 µM (active)
